# Data from patent US9006243B2, “HIV inhibiting 6-substituted pyrimidines” (Janssen R&D Ireland, priority 2006, dated 2015).
# Where two headings read alike, the source gives them in different places.
# Assays:
# Experiment in all cases: microbe, parasite or virus in culture
# [1] = target: HIV strain MDR (L100I, K103N, Y181C, E138G, V179I, L2214F, V278V/I and A327A/V in HIV reverse transcriptase); type: cell-based, HIV-1; details: for MDR pEC50 (−log EC50): MDR HIV strain (multiple RT mutations), MT4 LTR-EGFP cells, three days after infection
# From the text: (§1) Image analysis allows very sensitive detection of viral infection.
# “MDR” refers to a strain that contains mutations L100I, K103N, Y181C, E138G, V179I, L2214F, V278V/I and A327A/V in HIV reverse transcriptase.
# HIV strain K103N + Y181C = type: cell-based, HIV-1; details: for K103N + Y181C pEC50 (−log EC50): HIV strain K103N + Y181C, MT4 LTR-EGFP cells, three days after infection
# From the text: as §1
# HIV strain Y181C = type: cell-based, HIV-1; details: for Y181C pEC50 (−log EC50): HIV strain Y181C, MT4 LTR-EGFP cells, three days after infection
# From the text: as §1
# HIV strain L100I + K103N = type: cell-based, HIV-1; details: HIV strain L100I + K103N; MT4 LTR-EGFP cells; three days after infection
# From the text: as §1
# [2] = system: HIV strain IIIB (wild type)
# Procedure: Compounds of the invention were tested for their potency against wild type virus and clinically isolated HIV strains harboring one or more mutations associated with resistance to reverse transcriptase inhibitors. Antiviral activity was evaluated using a cellular assay performed according to the following procedure.
# The human T-cell line MT4 was engineered with Green Fluorescent Protein (GFP) and a HIV-specific promoter, HIV-1 long terminal repeat (LTR). This cell line, designated MT4 LTR-EGFP, can be used for the in vitro evaluation of anti-HIV activity of investigational compounds. In HIV-1 infected cells, the Tat protein is produced, which upregulates the LTR promotor and eventually leads to stimulation of the GFP reporter production, allowing to measure ongoing HIV-infection fluorometrically.
# Analogously, MT4 cells were engineered with GFP and the constitutional cytomegalovirus (CMV) promotor. […] Cytotoxic investigational compounds reduce GFP levels of mock-infected MT4 CMV-EGFP cells.
# The ratio of CC50 to EC50 is defined as the selectivity index (SI) and is an indication of the selectivity of the anti-HIV activity of the inhibitor. The ultimate monitoring of HIV-1 infection and cytotoxicity was done using a scanning microscope. Image analysis allows very sensitive detection of viral infection. Measurements were done before cell necrosis, which usually takes place about five days after infection, in particular measurements were performed three days after infection.
# The columns IIIB, L100I, etc. in the table list the pEC50 (−log EC50) values against various strains IIIB, L100I, etc.; pSI lists the −log SI values.
# Strain IIIB is wild type HIV strain.
# [3] = wild type HIV strain IIIB, MT4 LTR-EGFP cells, GFP fluorescence, three days after infection
SMILES,MDR pEC50 (−log EC50) [1],K103N + Y181C pEC50 (−log EC50) (HIV strain K103N + Y181C),Y181C pEC50 (−log EC50) (HIV strain Y181C),L100I + K103N pEC50 (−log EC50) (HIV strain L100I + K103N),IIIB pEC50 (−log EC50) [2],"IIIB pEC50 (−log EC50) [2, 3]","EC50 ([1]; Human immunodeficiency virus 1, 72 h, read-out: MDR pEC50 (−log EC50) (converted))","EC50 (HIV strain K103N + Y181C; Human immunodeficiency virus 1, 72 h, read-out: K103N + Y181C pEC50 (−log EC50) (converted))","EC50 (HIV strain Y181C; Human immunodeficiency virus 1, 72 h, read-out: Y181C pEC50 (−log EC50) (converted))","EC50 ([2]; Human immunodeficiency virus 1, IIIB, 72 h, read-out: IIIB pEC50 (−log EC50) (converted))"
Cc1cc(C=CC#N)cc(C)c1Nc1cc(CN2CCOCC2)nc(Nc2ccc(C#N)cc2)n1 (mixture of isomers) [Compound 12],5.57,6.78,7.28,6.50,8.62,,,,,
Cc1cc(C=CC#N)cc(C)c1Nc1cc(CNCC2CC2)nc(Nc2ccc(C#N)cc2)n1 (mixture of isomers) [Compound 14],5.67,7.76,7.85,7.00,,8.52,,,,
COCCNCc1cc(Nc2c(C)cc(C=CC#N)cc2C)nc(Nc2ccc(C#N)cc2)n1 (mixture of isomers) [Compound 15],5.55,7.86,7.89,7.42,,8.54,,,,
Cc1cc(C=CC#N)cc(C)c1Nc1cc(CNCC2COC(C)(C)O2)nc(Nc2ccc(C#N)cc2)n1 (mixture of isomers) [Compound 16],5.64,7.61,7.60,7.06,8.54,,,,,
Cc1cc(C=CC#N)cc(C)c1Nc1cc(CNCCc2ccc(S(N)(=O)=O)cc2)nc(Nc2ccc(C#N)cc2)n1 (mixture of isomers) [Compound 17],5.56,7.04,7.01,6.41,,7.80,,,,
CON(C)Cc1cc(Nc2c(C)cc(C=CC#N)cc2C)nc(Nc2ccc(C#N)cc2)n1 (mixture of isomers) [Compound 18],6.33,7.79,8.06,7.48,,9.05,,,,
Cc1cc(C=CC#N)cc(C)c1Nc1cc(Cn2ccnc2)nc(Nc2ccc(C#N)cc2)n1 (mixture of isomers) [Compound 19],5.32,6.97,7.68,6.83,,8.48,,,,
Cc1cc(C=CC#N)cc(C)c1Nc1cc(CNCCc2ccccn2)nc(Nc2ccc(C#N)cc2)n1 (mixture of isomers) [Compound 20],5.30,6.96,6.99,6.33,,8.46,,,,
CC(=O)NCCNCc1cc(Nc2c(C)cc(C=CC#N)cc2C)nc(Nc2ccc(C#N)cc2)n1 (mixture of isomers) [Compound 22],5.50,7.02,7.09,6.35,,7.93,,,,
COCC(C)NCc1cc(Nc2c(C)cc(C=CC#N)cc2C)nc(Nc2ccc(C#N)cc2)n1 (mixture of isomers) [Compound 23],5.67,7.78,7.72,6.98,,8.80,,,,
C=CCNCc1cc(Nc2c(C)cc(C=CC#N)cc2C)nc(Nc2ccc(C#N)cc2)n1 (mixture of isomers) [Compound 24],5.75,7.84,8.14,7.31,9.16,,,,,
Cc1cc(C=CC#N)cc(C)c1Nc1cc(CNCc2ccccn2)nc(Nc2ccc(C#N)cc2)n1 (mixture of isomers) [Compound 25],5.75,7.30,7.03,,,7.63,,,,
Cc1cc(C=CC#N)cc(C)c1Nc1cc(CNCc2ccco2)nc(Nc2ccc(C#N)cc2)n1 (mixture of isomers) [Compound 26],5.57,8.07,7.62,,,8.43,,,,
Cc1cc(C=CC#N)cc(C)c1Nc1cc(CNCC2CCCO2)nc(Nc2ccc(C#N)cc2)n1 (mixture of isomers) [Compound 28],5.68,7.82,7.81,7.27,,8.68,,,,
Cc1cc(C=CC#N)cc(C)c1Nc1cc(CNCCCN2CCOCC2)nc(Nc2ccc(C#N)cc2)n1 (mixture of isomers) [Compound 29],5.67,7.01,7.06,6.66,,7.70,,,,
Cc1cc(C=CC#N)cc(C)c1Nc1cc(CNCc2ccncc2)nc(Nc2ccc(C#N)cc2)n1 (mixture of isomers) [Compound 30],5.80,7.89,7.69,7.56,,8.55,,,,
Cc1cc(C=CC#N)cc(C)c1Nc1cc(CNCc2cccs2)nc(Nc2ccc(C#N)cc2)n1 (mixture of isomers) [Compound 31],5.48,7.71,7.48,7.13,,8.41,,,,
C=CCOCc1cc(Nc2c(C)cc(/C=C/C#N)cc2C)nc(Nc2ccc(C#N)cc2)n1 [Compound 2],4.95,7.15,7.74,7.12,,8.44,,,,
Cc1cc(/C=C/C#N)cc(C)c1Nc1cc(CNCc2cccnc2)nc(Nc2ccc(C#N)cc2)n1 [Compound 27],,,,,,,1170 nM,3.09 nM,16.2 nM,3.8 nM
